Patent publication US4656166A, “Antibiotic compounds derived from cephalosporins, process for their production and pharmaceutical compositions” (Sanofi, priority 1983, dated 1987)
In brackets after ≈: the same amount, converted by molar mass.

Assays:
Format in all cases: cell-based
Klebsiella RO 30 = test: MIC, in vitro dilution method, Klebsiella RO 30 (Table III); settings: RO30; Klebsiella RO 30; dilution method; read-out: MIC
Source text: (§1) The products of the invention have been studied as regards their pharmacological properties and, more especially, bacteriostatic action. This has been determined in vitro by the dilution method, and the study was on Gram negative strains.
(§2) Results, expressed in minimum inhibiting concentrations (MIC-- μg/ml), are collected in the following table (Table III).

Escherichia coli SOL 90 = test: MIC, in vitro dilution method, Escherichia coli SOL 90 (Table III); settings: SOL90; Escherichia coli SOL 90; dilution method; read-out: MIC
Source text: as §1, §2

Citrobacter RL 49 = test: MIC, in vitro dilution method, Citrobacter RL 49 (Table III); settings: RL49; Citrobacter RL 49; dilution method; read-out: MIC
Source text: as §1, §2

[1] = test system: Proteus vulgaris RL 99 bis; test: MIC, in vitro dilution method, Proteus vulgaris RL 99 bis (Table III); settings: RL99BIS; Proteus vulgaris RL 99 bis; dilution method; read-out: MIC
Source text: as §1, §2

Serratia RL 72 = test: MIC, in vitro dilution method, Serratia RL 72 (Table III); settings: RL72
Source text: as §1, §2

Pseudomonas RL 112 = test: MIC, in vitro dilution method, Pseudomonas RL 112 (Table III); settings: RL112
Source text: as §1, §2

Enterobacter RO 154 = test: MIC, in vitro dilution method, Enterobacter RO 154 (Table III); settings: RO154; Enterobacter RO 154; dilution method; read-out: MIC
Source text: as §1, §2

| SMILES | MIC (Klebsiella RO 30) [µg/mL] | MIC (Escherichia coli SOL 90) [µg/mL] | MIC (Citrobacter RL 49) [µg/mL] | MIC [1] [µg/mL] | MIC (Serratia RL 72) [µg/mL] | MIC (Pseudomonas RL 112) [µg/mL] | MIC (Enterobacter RO 154) [µg/mL] |
| --- | --- | --- | --- | --- | --- | --- | --- |
| CC(O)C(N)C(=O)OCC1=C(C(=O)O)N2C(=O)C(NC(=O)C(=NOC(C)(C)C(=O)O)c3csc(N)n3)C2[S+]([O-])C1 (centres unmarked) [41 885] | 0.5 (≈ 0.83 µM) | 1 (≈ 1.66 µM) | 4 (≈ 6.64 µM) | 0.5 (≈ 0.83 µM) | 4 (≈ 6.64 µM) | 8 (≈ 13.3 µM) | 8 (≈ 13.3 µM) |
| CC(C)(N)C(=O)OCC1=C(C(=O)O)N2C(=O)C(NC(=O)/C(=N\OC(C)(C)C(=O)O)c3csc(N)n3)C2[S+]([O-])C1 (centres unmarked) [41 858] | 0.5 (≈ 0.852 µM) | 2 (≈ 3.41 µM) | 1 (≈ 1.7 µM) | 0.5 (≈ 0.852 µM) | 4 (≈ 6.82 µM) | 8 (≈ 13.6 µM) | 8 (≈ 13.6 µM) |
| CC(O/N=C(\C(=O)NC1C(=O)N2C(C(=O)O)=C(COC(=O)C3CCNCC3)C[S+]([O-])C12)c1csc(N)n1)C(=O)O (centres unmarked) [42 215] | ≤ 0.12 | ≤ 0.12 | ≤ 0.12 | ≤ 0.12 | 0.25 (≈ 0.418 µM) | 8 (≈ 13.4 µM) | ≤ 0.12 |
| CNCc1ccc(C(=O)SCC2=C(C(=O)O)N3C(=O)C(NC(=O)C(=NOC4(C(=O)O)CCC4)c4csc(N)n4)C3[S+]([O-])C2)cc1 (centres unmarked) [compound 42534] | 0.25 (≈ 0.369 µM) | 0.5 (≈ 0.739 µM) | 0.25 (≈ 0.369 µM) | ≤ 0.125 | 1 (≈ 1.48 µM) | 8 (≈ 11.8 µM) | 0.5 (≈ 0.739 µM) |
| CC(C)(O/N=C(\C(=O)NC1C(=O)N2C(C(=O)O)=C(COC(=O)CC3CCCCN3)C[S+]([O-])C12)c1csc(N)n1)C(=O)O (centres unmarked) [42 371] | 0.25 (≈ 0.399 µM) | 0.5 (≈ 0.798 µM) | 0.25 (≈ 0.399 µM) | ≤ 0.125 | 0.5 (≈ 0.798 µM) | 8 (≈ 12.8 µM) | 0.25 (≈ 0.399 µM) |
| CC(C)(O/N=C(\C(=O)NC1C(=O)N2C(C(=O)O)=C(COC(=O)CC3CCCNC3)C[S+]([O-])C12)c1csc(N)n1)C(=O)O (centres unmarked) [42 372] | 0.25 (≈ 0.399 µM) | 0.25 (≈ 0.399 µM) | ≤ 0.125 | ≤ 0.125 | 0.25 (≈ 0.399 µM) | 4 (≈ 6.38 µM) | ≤ 0.125 |
| CC(C)NCc1ccc(C(=O)OCC2=C(C(=O)O)N3C(=O)C(NC(=O)/C(=N\OC(C)(C)C(=O)O)c4csc(N)n4)C3[S+]([O-])C2)cc1 (centres unmarked) [42 397] | ≤ 0.125 | ≤ 0.125 | ≤ 0.125 | ≤ 0.125 | 1 (≈ 1.48 µM) | 8 (≈ 11.8 µM) | ≤ 0.125 |
| CNCc1ccc(C(=O)OCC2=C(C(=O)O)N3C(=O)C(NC(=O)/C(=N\OC4(C(=O)O)CCC4)c4csc(N)n4)C3[S+]([O-])C2)cc1 (centres unmarked) [42 464] | ≤ 0.125 | ≤ 0.125 | ≤ 0.125 | ≤ 0.125 | 0.5 (≈ 0.757 µM) | 4 (≈ 6.05 µM) | ≤ 0.125 |
| CNCCCCC(=O)OCC1=C(C(=O)O)N2C(=O)C(NC(=O)/C(=N\OC(C)(C)C(=O)O)c3csc(N)n3)C2[S+]([O-])C1 (centres unmarked) [42 029] | 0.25 (≈ 0.407 µM) | 0.25 (≈ 0.407 µM) | 0.25 (≈ 0.407 µM) | ≤ 0.12 | 0.5 (≈ 0.813 µM) | 8 (≈ 13 µM) | 2 (≈ 3.25 µM) |
| CC(C)(O/N=C(\C(=O)NC1C(=O)N2C(C(=O)O)=C(COC(=O)C3(N)CCCCC3)C[S+]([O-])C12)c1csc(N)n1)C(=O)O (centres unmarked) [41 976] | 0.5 (≈ 0.798 µM) | 1 (≈ 1.6 µM) | 0.5 (≈ 0.798 µM) | 0.25 (≈ 0.399 µM) | 8 (≈ 12.8 µM) | 8 (≈ 12.8 µM) | 8 (≈ 12.8 µM) |
| CC(C)(ON=C(C(=O)NC1C(=O)N2C(C(=O)O)=C(COC(=O)C3CCCCC3CN)C[S+]([O-])C12)c1csc(N)n1)C(=O)O (centres unmarked) [42 321] | 0.5 (≈ 0.78 µM) | 0.5 (≈ 0.78 µM) | 0.5 (≈ 0.78 µM) | ≤ 0.125 | 1 (≈ 1.56 µM) | 8 (≈ 12.5 µM) | 0.25 (≈ 0.39 µM) |
| CC(C)(O/N=C(\C(=O)NC1C(=O)N2C(C(=O)O)=C(COC(=O)c3cccc(NC(=O)CN)c3)C[S+]([O-])C12)c1csc(N)n1)C(=O)O (centres unmarked) [42 374] | 0.25 (≈ 0.369 µM) | 0.5 (≈ 0.738 µM) | 0.25 (≈ 0.369 µM) | ≤ 0.125 | 1 (≈ 1.48 µM) | 4 (≈ 5.9 µM) | 0.25 (≈ 0.369 µM) |
| CC(C)(O/N=C(\C(=O)NC1C(=O)N2C(C(=O)O)=C(COC(=O)CCCCCCCN)C[S+]([O-])C12)c1csc(N)n1)C(=O)O (centres unmarked) [41 856] | 0.25 (≈ 0.389 µM) | 0.5 (≈ 0.778 µM) | 2 (≈ 3.11 µM) | ≤ 0.12 | 2 (≈ 3.11 µM) | 16 (≈ 24.9 µM) | 4 (≈ 6.22 µM) |
| CNCc1cccc(C(=O)OCC2=C(C(=O)O)N3C(=O)C(NC(=O)/C(=N\OC(C)(C)C(=O)O)c4csc(N)n4)C3[S+]([O-])C2)c1 (centres unmarked) [42 537] | 0.25 (≈ 0.385 µM) | 0.25 (≈ 0.385 µM) | 0.25 (≈ 0.385 µM) | ≤ 0.125 | 0.5 (≈ 0.771 µM) | 8 (≈ 12.3 µM) | 0.25 (≈ 0.385 µM) |
